According to patent US20260070945A1, “MACROCYCLIC IMMUNOMODULATORS” (Bristol-Myers Squibb Company, priority 2022, published 2026):
*1 amine or outer side, *2 acyl side, *3 side chain or, on linkers, in order; H or OH if unused. Where a SMILES comes first, the peptide text is derived from it. Bridges are numbered along the chain shown (N, C = ends). [ ]: non-standard residue; d: D form. The star is where a group is joined. ξ: configuration not given here. Phe(3-CF3) = N[C@@H](Cc1cccc(C(F)(F)F)c1)C(=O)O; Phe(4-CONH2) = NC(=O)c1ccc(C[C@H](N)C(=O)O)cc1; Phe(4-COOH) = N[C@@H](Cc1ccc(C(=O)O)cc1)C(=O)O; Bip = N[C@@H](Cc1ccc(-c2ccccc2)cc1)C(=O)O; Phe(4-CN) = N#Cc1ccc(C[C@H](N)C(=O)O)cc1; Phe(4-NH2) = Nc1ccc(C[C@H](N)C(=O)O)cc1; NH(CH2)14COOH = O=C(O)CCCCCCCCCCCCCCN*; Phe(3-Me) = Cc1cccc(C[C@H](N)C(=O)O)c1; γGlu = O=C(O)[C@H](CCC(=O)[*:2])N[*:1]; NH(CH2)8CO = O=C(CCCCCCCCN[*:1])[*:2]; NH(CH2)12COOH = O=C(O)CCCCCCCCCCCCN*; Val(3-OH) = CC(C)(O)[C@H](N)C(=O)O; hArg = N=C(N)NCCCC[C@H](N)C(=O)O; 3Pal = N[C@@H](Cc1cccnc1)C(=O)O; 4Pal = N[C@@H](Cc1ccncc1)C(=O)O; Cha = N[C@@H](CC1CCCCC1)C(=O)O; Cit = NC(=O)NCCC[C@H](N)C(=O)O; Ile(3ξ) = CCC(C)[C@H](N)C(=O)O; Thr(3ξ) = CC(O)[C@H](N)C(=O)O; Carboxymethyl = O=C(O)C*; NMeA = CN[C@@H](C)C(=O)O; Orn = NCCC[C@H](N)C(=O)O; Aun = NCCCCCCCCCCC(=O)O; Dab = NCC[C@H](N)C(=O)O; Dap = NC[C@H](N)C(=O)O; AEEA = NCCOCCOCC(=O)O

biological target: T1, PD-1/PD-L1 interaction (PE-labeled human PD-L1-Ig binding to Jurkat cell line over-expressing human PD-1) (Homo sapiens, UniProt Q15116); assay: Jurkat-PD-1 Cell Binding High-Content Screening Assay (CBA); settings: Jurkat-hPD-1 cells, PE-labeled PD-L1-Ig 20 nM final; read-out: Jurkat HPD1 PDL1 IC50
T1 construct: expressed in transfected cells; host or cells: Jurkat
T1 sequence (Q15116 25-288): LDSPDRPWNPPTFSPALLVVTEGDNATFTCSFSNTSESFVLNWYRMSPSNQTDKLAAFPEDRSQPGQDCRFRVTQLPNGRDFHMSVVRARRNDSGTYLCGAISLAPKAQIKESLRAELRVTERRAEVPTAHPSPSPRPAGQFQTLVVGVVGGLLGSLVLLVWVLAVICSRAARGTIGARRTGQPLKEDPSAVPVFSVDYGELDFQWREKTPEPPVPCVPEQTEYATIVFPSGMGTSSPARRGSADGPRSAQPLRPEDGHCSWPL
Procedure, shortened: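 Compound is added first to the PD-1-expressing Jurkat cells and held 2 h at 37 °C in serum-containing DMEM. The fluorescent PD-L1 fusion follows at 20 nM final for 1 h. Fixed, Hoechst-stained cells are then imaged for bound label.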

Row | SMILES | IC50
1 | CC(C)C[C@H]1NC(=O)[C@H](C)N(C)C(=O)[C@H](C(C)C)NC(=O)[C@H](Cc2ccc(-c3ccccc3)cc2)NC(=O)[C@H](C(C)C)NC(=O)[C@H](Cc2c[nH]c3ccccc23)NC(=O)[C@H](CC(=O)O)NC(=O)[C@H](Cc2ccc(OCC(=O)O)cc2)NC(=O)[C@H](Cc2ccncc2)NC(=O)CSC[C@@H](C(=O)N[C@@H](CCCCN)C(=O)NCCOCCOCC(=O)NCCCCCCCCCCC(=O)O)NC(=O)[C@H](CO)NC(=O)[C@H](C(C)C)NC(=O)[C@H](CC2CCCCC2)NC(=O)[C@H](CCN)NC1=O [Example 2100] ({CH2CO}-[4Pal]Y(Carboxymethyl)DWV[Bip]V[NMeA][dL][Dab][Cha]VSCK[AEEA][Aun]-OH; thioether N-14) | 21.7 nM
2 | Cc1cccc(C[C@@H]2NC(=O)[C@H](CC(=O)O)NC(=O)[C@H](Cc3cccnc3)NC(=O)[C@H](CC(N)=O)NC(=O)CSC[C@@H](C(=O)N[C@@H](CCN)C(=O)NCCCCCCCCCCC(=O)O)NC(=O)[C@H]([C@@H](C)O)NC(=O)[C@H](C(C)C)NC(=O)[C@H](CC3CCCCC3)NC(=O)[C@H](CCN)NC(=O)[C@@H](CC(C)C)NC(=O)[C@H](C)N(C)C(=O)[C@H](Cc3ccc(O)cc3)NC(=O)[C@H](Cc3ccc(-c4ccccc4)cc3)NC(=O)[C@H](C(C)C)NC2=O)c1 [Example 1323] ({CH2CO}-N[3Pal]D[Phe(3-Me)]V[Bip]Y[NMeA][dL][Dab][Cha]VTC[Dab][Aun]-OH; thioether N-14) | 99.4 nM
3 | CC(C)C[C@H]1NC(=O)[C@H](C)N(C)C(=O)[C@H](CCC(N)=O)NC(=O)[C@H](Cc2ccc(-c3ccccc3)cc2)NC(=O)[C@H](Cc2ccc(C(=O)O)cc2)NC(=O)[C@H](Cc2cccc(C(F)(F)F)c2)NC(=O)[C@H](CC(=O)O)NC(=O)[C@H](Cc2ccc(OCC(=O)O)cc2)NC(=O)[C@H](Cc2ccc(C(=O)O)cc2)NC(=O)CSC[C@@H](C(=O)N[C@@H](CCN)C(=O)NCCCCCCCCCCCCC(=O)O)NC(=O)[C@H](CCC(=O)O)NC(=O)[C@H](C(C)C)NC(=O)[C@H](CC2CCCCC2)NC(=O)[C@H](CCN)NC1=O [Example 1143] ({CH2CO}-[Phe(4-COOH)]Y(Carboxymethyl)D[Phe(3-CF3)][Phe(4-COOH)][Bip]Q[NMeA][dL][Dab][Cha]VEC[Dab]-{NH(CH2)12COOH}; thioether N-14) | 21.4 nM
4 | Cc1cccc(C[C@@H]2NC(=O)[C@H](CC(=O)O)NC(=O)[C@H](Cc3ccc(C(=O)O)cc3)NC(=O)[C@H](CCN)NC(=O)CSC[C@@H](C(=O)N[C@@H](CCN)C(=O)NCCCCCCCCCCC(=O)O)NC(=O)[C@H](CO)NC(=O)[C@H](C(C)(C)O)NC(=O)[C@H](CC3CCCCC3)NC(=O)[C@H](CCN)NC(=O)[C@@H](CC(C)C)NC(=O)[C@H](C)N(C)C(=O)[C@H](Cc3ccc(OCC(=O)O)cc3)NC(=O)[C@H](Cc3ccc(-c4ccccc4)cc3)NC(=O)[C@H](Cc3ccc(C#N)cc3)NC2=O)c1 [Example 1300] ({CH2CO}-[Dab][Phe(4-COOH)]D[Phe(3-Me)][Phe(4-CN)][Bip]Y(Carboxymethyl)[NMeA][dL][Dab][Cha][Val(3-OH)]SC[Dab][Aun]-OH; thioether N-14) | 21.5 nM
5 | CC(C)C[C@@H]1NC(=O)[C@H](Cc2c[nH]c3ccccc23)NC(=O)[C@H](CC(=O)O)NC(=O)[C@H](Cc2ccncc2)NC(=O)[C@H](Cc2ccc(OCC(=O)O)cc2)NC(=O)CSC[C@@H](C(=O)NCCOCCOCC(=O)N[C@@H](CCCNC(N)=O)C(=O)NCCCCCCCCCCC(=O)O)NC(=O)[C@H](CCCNC(N)=O)NC(=O)[C@H](C(C)C)NC(=O)[C@H](CC2CCCCC2)NC(=O)[C@H](CCN)NC(=O)[C@@H](CC(C)C)NC(=O)[C@H](C)N(C)C(=O)[C@H](C(C)C)NC(=O)[C@H](Cc2ccc(-c3ccccc3)cc2)NC1=O [Example 2174] ({CH2CO}-Y(Carboxymethyl)[4Pal]DWL[Bip]V[NMeA][dL][Dab][Cha]V[Cit]C[AEEA][Cit][Aun]-OH; thioether N-14) | 16.4 nM
6 | CC(C)C[C@H]1NC(=O)[C@H](C)N(C)C(=O)[C@H](C(C)C)NC(=O)[C@H](Cc2ccc(-c3ccccc3)cc2)NC(=O)[C@H](C(C)C)NC(=O)[C@H](Cc2c[nH]c3ccccc23)NC(=O)[C@H](CC(=O)O)NC(=O)[C@H](Cc2ccc(C(=O)O)cc2)NC(=O)[C@H](Cc2ccc(OCC(=O)O)cc2)NC(=O)CSC[C@@H](C(=O)N[C@@H](CCCN)C(=O)NCCOCCOCC(=O)NCCCCCCCCCCC(=O)O)NC(=O)[C@H](CO)NC(=O)[C@H](C(C)C)NC(=O)[C@H](CC2CCCCC2)NC(=O)[C@H](CCN)NC1=O [Example 2110] ({CH2CO}-Y(Carboxymethyl)[Phe(4-COOH)]DWV[Bip]V[NMeA][dL][Dab][Cha]VSC[Orn][AEEA][Aun]-OH; thioether N-14) | 17 nM
7 | CC(C)C[C@H]1NC(=O)[C@H](C)N(C)C(=O)[C@H](Cc2ccc(OCC(=O)O)cc2)NC(=O)[C@H](Cc2ccc(-c3ccccc3)cc2)NC(=O)[C@H](Cc2ccc(OCC(=O)O)cc2)NC(=O)[C@H](Cc2c[nH]c3ccccc23)NC(=O)[C@H](CC(=O)O)NC(=O)[C@H](Cc2ccc(OCC(=O)O)cc2)NC(=O)[C@H]([C@@H](C)O)NC(=O)CSC[C@@H](C(=O)N[C@@H](CCCN)C(=O)NCCOCCOCC(=O)NCCCCCCCCCCC(=O)O)NC(=O)[C@H](CCC(=O)O)NC(=O)[C@H](C(C)C)NC(=O)[C@H](CC2CCCCC2)NC(=O)[C@H](CCN)NC1=O [Example 1396] ({CH2CO}-TY(Carboxymethyl)DWY(Carboxymethyl)[Bip]Y(Carboxymethyl)[NMeA][dL][Dab][Cha]VEC[Orn][AEEA][Aun]-OH; thioether N-14) | 304 nM

Further lines, results first:

Row | IC50 | SMILES
8 | 25.9 nM | CC(C)C[C@@H]1NC(=O)[C@H](Cc2c[nH]c3ccccc23)NC(=O)[C@H](CC(=O)O)NC(=O)[C@H](Cc2ccc(OCC(=O)O)cc2)NC(=O)[C@H](CCCCNC(=N)N)NC(=O)CSC[C@@H](C(=O)N[C@@H](CCCN)C(=O)NCCOCCOCC(=O)NCCCCCCCCCCC(=O)O)NC(=O)[C@H](CCCNC(N)=O)NC(=O)[C@H](C(C)C)NC(=O)[C@H](CC2CCCCC2)NC(=O)[C@H](CN)NC(=O)[C@@H](CC(C)C)NC(=O)[C@H](C)N(C)C(=O)[C@H](C(C)C)NC(=O)[C@H](Cc2ccc(-c3ccccc3)cc2)NC1=O [Example 2177] ({CH2CO}-[hArg]Y(Carboxymethyl)DWL[Bip]V[NMeA][dL][Dap][Cha]V[Cit]C[Orn][AEEA][Aun]-OH; thioether N-14)
9 | 19.5 nM | CCC(C)[C@@H]1NC(=O)[C@H](Cc2ccc(-c3ccccc3)cc2)NC(=O)[C@H](C(C)C)NC(=O)[C@H](Cc2cccc(C)c2)NC(=O)[C@H](CC(=O)O)NC(=O)[C@H](Cc2ccc(OCC(=O)O)cc2)NC(=O)[C@H](C(C)O)NC(=O)CSC[C@@H](C(=O)NCCOCCOCC(=O)NCCCCCCCCCCC(=O)O)NC(=O)[C@H](C(C)O)NC(=O)[C@H](C(C)C)NC(=O)[C@H](CC2CCCCC2)NC(=O)[C@H](CCN)NC(=O)[C@@H](CC(C)C)NC(=O)[C@H](C)N(C)C1=O (stereo partly drawn) [Example 2328] ({CH2CO}-[Thr(3ξ)]Y(Carboxymethyl)D[Phe(3-Me)]V[Bip][Ile(3ξ)][NMeA][dL][Dab][Cha]V[Thr(3ξ)]C[AEEA][Aun]-OH; thioether N-14)

same assay, conditions: PE-labeled PD-L1-Ig 20 nM final, Jurkat-hPD-1 cells; read-out: Jurkat HPD1 PDL1 IC50

Row | IC50 | SMILES
10 | 6.1 nM | Cc1cccc(C[C@@H]2NC(=O)[C@H](CC(=O)O)NC(=O)[C@H](Cc3ccc(N)cc3)NC(=O)[C@H]([C@@H](C)O)NC(=O)CSC[C@@H](C(=O)N[C@@H](CCN)C(=O)NCCCCCCCCC(=O)NCCCCCCCCCCC(=O)O)NC(=O)[C@H](CCCN)NC(=O)[C@H](C(C)C)NC(=O)[C@H](CC3CCCCC3)NC(=O)[C@H](CCN)NC(=O)[C@@H](CC(C)C)NC(=O)[C@H](C)N(C)C(=O)[C@H](Cc3ccc(N)cc3)NC(=O)[C@H](Cc3ccc(-c4ccccc4)cc3)NC(=O)[C@H](Cc3ccc(N)cc3)NC2=O)c1 [Example 2689] ({CH2CO}-T[Phe(4-NH2)]D[Phe(3-Me)][Phe(4-NH2)][Bip][Phe(4-NH2)][NMeA][dL][Dab][Cha]V[Orn]C[Dab][NH(CH2)8CO][Aun]-OH; thioether N-14)
11 | 1.4 nM | CC(=O)NCCCC[C@@H]1NC(=O)[C@H](C(C)(C)O)NC(=O)[C@H](CC2CCCCC2)NC(=O)[C@H](CCN)NC(=O)[C@@H](CC(C)C)NC(=O)[C@H](C)N(C)C(=O)[C@H](CCC(=O)O)NC(=O)[C@H](Cc2ccc(-c3ccccc3)cc2)NC(=O)[C@H](Cc2ccc(C(N)=O)cc2)NC(=O)[C@H](Cc2cccc(C)c2)NC(=O)[C@H](CC(=O)O)NC(=O)[C@H](Cc2ccc(OCC(=O)O)cc2)NC(=O)[C@H](Cc2ccc(OCC(=O)O)cc2)NC(=O)CSC[C@@H](C(=O)N[C@@H](CCN)C(=O)NCCOCCOCC(=O)NCCCCCCCCCCC(=O)O)NC1=O [Example 2532] ({CH2CO}-Y(Carboxymethyl)Y(Carboxymethyl)D[Phe(3-Me)][Phe(4-CONH2)][Bip]E[NMeA][dL][Dab][Cha][Val(3-OH)]K(Ac)C[Dab][AEEA][Aun]-OH; thioether N-14)
12 | 47 nM | CC(=O)NCCCC[C@@H]1NC(=O)[C@H](C(C)(C)O)NC(=O)[C@H](CC2CCCCC2)NC(=O)[C@H](CCN)NC(=O)[C@@H](CC(C)C)NC(=O)[C@H](C)N(C)C(=O)[C@H](CCC(N)=O)NC(=O)[C@H](Cc2ccc(-c3ccccc3)cc2)NC(=O)[C@H](Cc2ccc(C(=O)O)cc2)NC(=O)[C@H](Cc2cccc(C(F)(F)F)c2)NC(=O)[C@H](CC(=O)O)NC(=O)[C@H](Cc2ccc(OCC(=O)O)cc2)NC(=O)[C@H](Cc2ccc(OCC(=O)O)cc2)NC(=O)CSC[C@@H](C(=O)N[C@@H](CCN)C(=O)NCCOCCOCC(=O)N[C@@H](CCC(=O)NCCOCCOCC(=O)NCCCCCCCCCCCCCCC(=O)O)C(=O)O)NC1=O [Example 2652] ({CH2CO}-Y(Carboxymethyl)Y(Carboxymethyl)D[Phe(3-CF3)][Phe(4-COOH)][Bip]Q[NMeA][dL][Dab][Cha][Val(3-OH)]K(Ac)C[Dab][AEEA][γGlu][AEEA]-{NH(CH2)14COOH}; thioether N-14)
